From EP0153203A1, “C10-C20-Branched-chain fatty acids useful as medicaments and the preparation thereof” (PIERRE FABRE MEDICAMENT, priority 1984, dated 1985)

Tested on: oedème généralisé au dextran
Assay: generalized dextran oedema test (anti-inflammatory activity, oral, rat)
Type: in vivo

| SMILES | propriétés anti-inflammatoires (test de l'oedème généralisé au dextran) (solution à 1 % dans l'huile d'arachide, voie orale chez le rat, by action on the vascular phase and decrease of platelet aggregation) | activité anti-inflammatoire (même type) (administration par voie orale chez le rat, concentration and vehicle not stated) |
| --- | --- | --- |
| CC(C)CCCCCCCCCCC(=O)O [acide isomyristique, acide méthyl-12 tridécanoTque] | propriétés anti-inflammatoires marquées | – |
| CCC(C)CCCCCCCCCC(=O)O (centres unmarked) [acide antéisomyristique, acide méthyl-11 tridécanoique] | – | Le même type d'activité anti-inflammatoire a été mis en évidence |
